Measurements: ChEMBL document CHEMBL3885881, “DrugMatrix”

Species: Rattus norvegicus
Assay: DrugMatrix - Regimen: Daily Repeat
Format: toxicity, organism-based, Sprague-Dawley
Design: regimen Daily Repeat, gender Male, age 6-8 weeks
Settings: in vivo, po, route oral GAVAGE, […]; for ABSOLUTE BASOPHIL / ABSOLUTE EOSINOPHIL / ABSOLUTE LYMPHOCYTE / ABSOLUTE MONOCYTE / ABSOLUTE SEGMENTED NEUTROPHIL / BASOPHIL / EOSINOPHIL / ERYTHROCYTE COUNT / HEMATOCRIT / HEMOGLOBIN / LEUKOCYTE COUNT / LYMPHOCYTE / MEAN CORPUSCULAR HEMOGLOBIN / MEAN CORPUSCULAR HEMOGLOBIN CONCENTRATION / MEAN CORPUSCULAR VOLUME / MONOCYTE / NEUTROPHIL / NUCLEATED RED BLOOD CELLS / PLATELET COUNT: tissue Blood; for ALANINE AMINOTRANSFERASE / ALBUMIN / ALKALINE PHOSPHATASE / ASPARTATE AMINOTRANSFERASE / BLOOD UREA NITROGEN / CARBON DIOXIDE / CHLORIDE / CHOLESTEROL / CREATINE PHOSPHOKINASE / CREATININE / GLUCOSE / LACTATE DEHYDROGENASE / LIPASE / PHOSPHORUS / POTASSIUM / SODIUM / TOTAL BILIRUBIN / TOTAL PROTEIN / URIC ACID: tissue Plasma
[1] = 0 mg/kg, 72 h, dose level Control, time 3 day
[2] = 0 mg/kg, 120 h, dose level Control, time 5 day
[3] = 100 mg/kg, 72 h, dose level Low, time 3 day

With `CC(C)(Oc1ccc(Cl)cc1)C(=O)O` [CLOFIBRIC ACID] the “ABSOLUTE BASOPHIL” value [1] was 0 CELLS/uL, the “ABSOLUTE EOSINOPHIL” value [1] was 0 CELLS/uL and the “ABSOLUTE LYMPHOCYTE” value [1] was 14687.67 CELLS/uL. The “ABSOLUTE MONOCYTE” value [1] was 164 CELLS/uL, the “ABSOLUTE SEGMENTED NEUTROPHIL” value [1] was 1748.33 CELLS/uL and the BASOPHIL [1] was 0%. The EOSINOPHIL [1] was 0%, the “ERYTHROCYTE COUNT” value [1] was 5.51 x10E6/uL and the HEMATOCRIT [1] was 33.68%. The HEMOGLOBIN [1] was 13.4 G/DL, the “LEUKOCYTE COUNT” value [1] was 16.6 x10E3/uL and the LYMPHOCYTE [1] was 88.83%. For the same molecule, the “MEAN CORPUSCULAR HEMOGLOBIN” value [1] was 24.47 pg, the “MEAN CORPUSCULAR HEMOGLOBIN CONCENTRATION” value [1] was 39.82 G/DL and the “MEAN CORPUSCULAR VOLUME” value [1] was 61.23 fL. For the same molecule, the MONOCYTE [1] was 0.83%, the NEUTROPHIL [1] was 10.33% and the “NUCLEATED RED BLOOD CELLS” value [1] was 0 /100WBC. The “PLATELET COUNT” value [1] was 1329.67 x10E3/uL, the “ALANINE AMINOTRANSFERASE” value [1] was 61.33 u/L and the ALBUMIN [1] was 4.18 G/DL. For the same molecule, the “ALKALINE PHOSPHATASE” value [1] was 332.5 u/L, the “ASPARTATE AMINOTRANSFERASE” value [1] was 98.33 u/L and the “BLOOD UREA NITROGEN” value [1] was 15.83 mg/dL. For the same molecule, the “CARBON DIOXIDE” value [1] was 27.83 mmol/L, the CHLORIDE [1] was 100 MEQ/L and the CHOLESTEROL [1] was 76.17 mg/dL. The “CREATINE PHOSPHOKINASE” value [1] was 729.17 u/L, the CREATININE [1] was 0.21 mg/dL and the GLUCOSE [1] was 151.83 mg/dL. For the same molecule, the “LACTATE DEHYDROGENASE” value [1] was 484.67 u/L, the LIPASE [1] was 10 u/L and the PHOSPHORUS [1] was 11.3 mg/dL. The POTASSIUM [1] was 6.1 MEQ/L, the SODIUM [1] was 142.9 MEQ/L and the “TOTAL BILIRUBIN” value [1] was 0.23 mg/dL. For the same molecule, the “TOTAL PROTEIN” value [1] was 5.68 G/DL, the “URIC ACID” value [1] was 1.75 mg/dL and the “ABSOLUTE BASOPHIL” value [2] was 0 CELLS/uL. The “ABSOLUTE EOSINOPHIL” value [2] was 58.67 CELLS/uL, the “ABSOLUTE LYMPHOCYTE” value [2] was 15950.83 CELLS/uL and the “ABSOLUTE MONOCYTE” value [2] was 172.5 CELLS/uL. For the same molecule, the “ABSOLUTE SEGMENTED NEUTROPHIL” value [2] was 2551.33 CELLS/uL, the BASOPHIL [2] was 0% and the EOSINOPHIL [2] was 0.33%. The “ERYTHROCYTE COUNT” value [2] was 5.5 x10E6/uL, the HEMATOCRIT [2] was 34.05% and the HEMOGLOBIN [2] was 13.42 G/DL. The “LEUKOCYTE COUNT” value [2] was 18.73 x10E3/uL, the LYMPHOCYTE [2] was 84.5% and the “MEAN CORPUSCULAR HEMOGLOBIN” value [2] was 24.42 pg. For the same molecule, the “MEAN CORPUSCULAR HEMOGLOBIN CONCENTRATION” value [2] was 39.42 G/DL, the “MEAN CORPUSCULAR VOLUME” value [2] was 61.97 fL and the MONOCYTE [2] was 1%. For the same molecule, the NEUTROPHIL [2] was 14.17%, the “NUCLEATED RED BLOOD CELLS” value [2] was 0.33 /100WBC and the “PLATELET COUNT” value [2] was 1143.17 x10E3/uL. The “ALANINE AMINOTRANSFERASE” value [2] was 57 u/L, the ALBUMIN [2] was 4.17 G/DL and the “ALKALINE PHOSPHATASE” value [2] was 347.33 u/L. For the same molecule, the “ASPARTATE AMINOTRANSFERASE” value [2] was 93.67 u/L, the “BLOOD UREA NITROGEN” value [2] was 15.67 mg/dL and the “CARBON DIOXIDE” value [2] was 27.17 mmol/L. The CHLORIDE [2] was 104.33 MEQ/L, the CHOLESTEROL [2] was 69.5 mg/dL and the “CREATINE PHOSPHOKINASE” value [2] was 317.17 u/L. The CREATININE [2] was 0.2 mg/dL, the GLUCOSE [2] was 162.33 mg/dL and the “LACTATE DEHYDROGENASE” value [2] was 408.67 u/L. For the same molecule, the LIPASE [2] was 10.17 u/L, the PHOSPHORUS [2] was 11.08 mg/dL and the POTASSIUM [2] was 6.36 MEQ/L. For the same molecule, the SODIUM [2] was 146.07 MEQ/L, the “TOTAL BILIRUBIN” value [2] was 0.22 mg/dL and the “TOTAL PROTEIN” value [2] was 5.92 G/DL. For the same molecule, the “URIC ACID” value [2] was 1.47 mg/dL, the “ABSOLUTE BASOPHIL” value [3] was 0 CELLS/uL and the “ABSOLUTE EOSINOPHIL” value [3] was 83.33 CELLS/uL. The “ABSOLUTE LYMPHOCYTE” value [3] was 12714.67 CELLS/uL, the “ABSOLUTE MONOCYTE” value [3] was 127.67 CELLS/uL and the “ABSOLUTE SEGMENTED NEUTROPHIL” value [3] was 1507.67 CELLS/uL. The BASOPHIL [3] was 0%, the EOSINOPHIL [3] was 0.67% and the “ERYTHROCYTE COUNT” value [3] was 5.9 x10E6/uL. The HEMATOCRIT [3] was 36.47%, the HEMOGLOBIN [3] was 14.53 G/DL and the “LEUKOCYTE COUNT” value [3] was 14.43 x10E3/uL. For the same molecule, the LYMPHOCYTE [3] was 88%, the “MEAN CORPUSCULAR HEMOGLOBIN” value [3] was 24.67 pg and the “MEAN CORPUSCULAR HEMOGLOBIN CONCENTRATION” value [3] was 39.87 G/DL. The “MEAN CORPUSCULAR VOLUME” value [3] was 61.83 fL, the MONOCYTE [3] was 1% and the NEUTROPHIL [3] was 10.33%. For the same molecule, the “NUCLEATED RED BLOOD CELLS” value [3] was 0 /100WBC, the “PLATELET COUNT” value [3] was 1176.67 x10E3/uL and the “ALANINE AMINOTRANSFERASE” value [3] was 51 u/L. For the same molecule, the ALBUMIN [3] was 4.33 G/DL, the “ALKALINE PHOSPHATASE” value [3] was 364.33 u/L and the “ASPARTATE AMINOTRANSFERASE” value [3] was 99.67 u/L. For the same molecule, the “BLOOD UREA NITROGEN” value [3] was 17 mg/dL, the “CARBON DIOXIDE” value [3] was 27 mmol/L and the CHLORIDE [3] was 96 MEQ/L. The CHOLESTEROL [3] was 62 mg/dL, the “CREATINE PHOSPHOKINASE” value [3] was 636.33 u/L and the CREATININE [3] was 0.34 mg/dL. For the same molecule, the GLUCOSE [3] was 180.67 mg/dL, the “LACTATE DEHYDROGENASE” value [3] was 303.67 u/L and the LIPASE [3] was 9.33 u/L. For the same molecule, the PHOSPHORUS [3] was 11.9 mg/dL, the POTASSIUM [3] was 5.92 MEQ/L and the SODIUM [3] was 141 MEQ/L. For the same molecule, the “TOTAL BILIRUBIN” value [3] was 0.1 mg/dL, the “TOTAL PROTEIN” value [3] was 5.8 G/DL and the “URIC ACID” value [3] was 2.07 mg/dL.
